How the values were obtained:
BV-2 cells = test: MTS cell proliferation assay on BV-2 cells; assay type: cell-based, murine; details: 10 μM, 48 h and 72 h, vs vehicle control
Protocol: (§1) To explore whether the inhibitors are cytotoxic, MTS assay were conducted on BV-2 cells, a murine microglial cell line derived from post-natal mouse cerebella, and HEK293T cells that are derived from human embryonic kidney. Both cell types were treated with 10 μM of 1a, 2g and 2i for 48 h and 72 h (Fig. 3A,B). Dimethyl sulfoxide (DMSO) vehicle control was also included as the compounds were dissolved in DMSO.
(§2) Cells were plated on a 96-wells plate and grown for 24 h to a density of 8000 cells per well for both HEK293T and BV-2 cells. Cells were cultured at 37 °C under a 5% CO2 environment in 100 μL of culture medium. Thereafter, the compound of interest dissolved in culture medium at a concentration of 10 μM was replaced into each well. DMSO was added as vehicle in the control group. 3 biological replicates were performed. The plates were then incubated at 37 °C with 5% CO2 for 48 h and 72 h. At each individual time point, 20 μL of CellTiter 96® AQueous One Solution (MTS reagent) was added into each well and re-incubated at 37 °C with 5% CO2 without light for 3 h. Colorimetric readings were taken using a Varioskan plate reader at 490 nm and analyzed. Three independent biological repeats with four technical replicates were performed.

HEK293T cells = test: MTS cell proliferation assay on HEK293T cells; assay type: cell-based, human; details: 10 μM, 48 h and 72 h, vs vehicle control
Protocol: as §1, §2

recombinant cPLA2 [1] = target: T1, recombinant cPLA2 (Homo sapiens, UniProt P47712); test: EnzChek phospholipase A2 fluorogenic assay (% activity) at 10 μM; assay type: biochemical; details: 10 μM compound; for remaining activity at 10 µM: 1 h, room temperature
T1 construct: purchased US Biological P4074-03R
T1 sequence (P47712 1-749): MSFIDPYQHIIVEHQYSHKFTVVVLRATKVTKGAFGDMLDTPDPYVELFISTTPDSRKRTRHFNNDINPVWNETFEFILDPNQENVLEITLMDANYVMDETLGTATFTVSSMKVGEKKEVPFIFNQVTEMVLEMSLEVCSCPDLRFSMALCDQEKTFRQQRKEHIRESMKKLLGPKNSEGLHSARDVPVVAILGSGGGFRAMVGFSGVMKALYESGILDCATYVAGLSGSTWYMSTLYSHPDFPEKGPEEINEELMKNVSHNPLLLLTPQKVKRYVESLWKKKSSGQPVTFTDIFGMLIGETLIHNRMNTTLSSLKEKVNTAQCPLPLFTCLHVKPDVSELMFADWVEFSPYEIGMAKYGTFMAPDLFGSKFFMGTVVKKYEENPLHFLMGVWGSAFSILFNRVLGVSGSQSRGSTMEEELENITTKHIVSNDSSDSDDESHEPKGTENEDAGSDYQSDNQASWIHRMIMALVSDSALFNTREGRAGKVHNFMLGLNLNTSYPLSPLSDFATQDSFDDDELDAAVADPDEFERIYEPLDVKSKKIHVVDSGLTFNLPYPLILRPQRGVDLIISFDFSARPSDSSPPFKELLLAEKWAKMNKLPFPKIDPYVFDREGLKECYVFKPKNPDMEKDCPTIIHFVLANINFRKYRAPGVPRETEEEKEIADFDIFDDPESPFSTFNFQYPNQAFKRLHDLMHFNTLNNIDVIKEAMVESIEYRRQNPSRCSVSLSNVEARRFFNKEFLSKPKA
Protocol: The compounds were evaluated with a fluorogenic PLA2 assay kit (EnzChek® Phospholipase A2 Assay Kit, Catalog No: E10217) at a standard 10 μM concentration. Potential inhibitors were determined by their ability to lower cPLA2 activity to a greater extent than 1a.
The assay was conducted according to the manufacturer’s instruction (E10217, Molecular Probes) with slight modification. Briefly, substrate solution was separately prepared by mixing 5 μL of DOPG, 5 μL of DOPC and 5 μL of substrate respectively in 1.5 mL of 1X phospholipase A2 reaction buffer. The mixture was vortexed vigorously for 3 min before allowing to stand at room temperature for 1 h. 48 μL of 1X phospholipase A2 reaction buffer were added into each well of a 96-wells plate. This was followed by addition of 1 μL of recombinant cPLA2 (P4074-03R, US Biological) and 1 μL of 1 mM of the respective compound dissolved in DMSO. The final concentration of the test compound achieved is 10 μM. The reaction was initiated by adding 50 μL of the substrate solution and incubating at room temperature for 1 h. Fluorescence was measured using a Varioskan plate reader (Thermo Scientific, MA, USA) by exciting at 485 nm, while fluorescence emission was detected at 515 nm. Positive control was performed when 1 μL of test compound was replaced by vehicle DMSO. % activity was expressed as the mean value of duplicate wells from three experiments. % activity was calculated by the following formula1 %activity=fluorescenceoftestedwell−background/fluorescenceofpostivecontrol−background

recombinant cPLA2 [2] = target: T1, recombinant cPLA2; test: EnzChek phospholipase A2 fluorogenic assay (IC50); assay type: biochemical
Protocol: The assay was conducted as described above. Instead of adding a fixed concentration of the test compound, various concentrations of compound were reconstituted in DMSO. 48 μL of 1X phospholipase A2 reaction buffer were added into each well of a 96-wells plate. This was followed by addition of 1 μL of recombinant cPLA2 (P4074-03R, US Biological) and 1 μL of the respective concentration of the test compound dissolved in DMSO. The reaction was initiated by adding 50 μL of the substrate solution and incubating at room temperature for 1 h. Fluorescence was measured using a Varioskan plate reader by exciting at 485 nm, while fluorescence emission was detected at 515 nm. Positive control was performed when 1 μL of test compound was replaced by vehicle DMSO. IC50 was expressed as the mean value of duplicate wells from three experiments.

[3] = PAMPA with porcine brain lipids (BBB permeation); details: for order of Pe values of reference compounds: similar conditions
Protocol: Thus to explore whether 2i is able to penetrate into the brain, we used PAMPA with porcine brain lipids as the lipid barrier. […] A minimum Pe of […] × 10^−6 cm/s has been cited as the threshold for permeability across the blood brain barrier.
The Parallel Artificial Membrane Permeability Assay (PAMPA) was used to determine the effective permeability (Pe) of 2i. The method reported by Di et al.[53] was followed with modifications. Determinations were carried out on MultiScreen-IP PAMPA assay (donor) plates (MAIPNTR10) and MultiScreen Receiver Plates (MATRNPS50) from Millipore Corporation (USA) with porcine polar brain lipids (Avanti Polar Lipids Inc, Alabaster, AL) as the lipid barrier.
An aliquot (5 µL) of 2% porcine brain lipids in dodecane (ReagentPlus®, Sigma Aldrich, USA) was dispensed into the donor well. A stock solution (5 mM) of 2i prepared in DMSO was diluted with 1x phosphate buffer (PBS, pH 7.4) to give a 50 µM solution. An aliquot (300 µL) of the solution was dispensed into the donor well and an equal volume of buffer (1xPBS with 1% DMSO) was added to the corresponding acceptor well. The donor and acceptor plates were assembled, the unit was placed in a humidified box and gently agitated on a mini shaker at room temperature (25 °C) for 16 h. After this time, aliquots (200 µL) were withdrawn from the donor and acceptor wells, diluted separately to 1 mL with PBS, and quantified at λmax of 290 nm on a Shimadzu UV-1800 Spectrophotometer.
300 µL aliquots of stock solutions (500 µM, 1xPBS, 0.1% DMSO) were dispensed to donor wells as described earlier. Quantification was by UV at λmax of 272 nm (caffeine), 284 nm (carbamazepine), 330 nm (quinidine), 280 nm (dopamine) and 288 nm (propanolol). […] Pe was obtained from (3):3 Pe=−2.303×{VAVD/[(VA+VD)×A×t]}×log{1−[(VA+VD)/(VD.S)]×CA(t)/CD(0)} where VA and VD are the volumes of acceptor (cm^3) and donor (cm^3) wells respectively, A is the area of the surface area of the membrane (0.24 cm^2), t is the permeation time (s). The Pe of each compound was obtained from at least 3 separate experiments using 2 different stock solutions. For each independent determination, triplicates (3 wells) were run for each compound.

| SMILES | inhibition at 10 µM (recombinant cPLA2 [1]) [%] | remaining activity at 10 µM (recombinant cPLA2 [1]) [%] | other results |
| --- | --- | --- | --- |
| CCCCC/C=C\C/C=C\C/C=C\C/C=C\CCCC(=O)C(F)(F)F [1a, arachidonyl trifluoromethyl ketone, reference compound] | 60 | 40 ± 0.9 | cytotoxicity (MTS) on BV-2 cells (BV-2 cells): no statistical differences in cell survival; cytotoxicity (MTS) on HEK293T cells (HEK293T cells): no statistical differences in cell survival; IC50 (recombinant cPLA2 [2]): 16.5 ± 3 µM |
| CCC/C=C\C/C=C\C/C=C\C/C=C\CCCC(=O)C(F)(F)F [1b] | 63 | 37 ± 3.9 | – |
| CCCCCCCC/C=C\C/C=C\C/C=C\C/C=C\CCCC(=O)C(F)(F)F [1c] | 55 | 45 ± 3.5 | – |
| O=C(CCC/C=C\C/C=C\C/C=C\C/C=C\c1ccccc1)C(F)(F)F [1d] | 68.2 | 31.8 ± 2 | – |
| CCCCCC/C=C\C/C=C\C/C=C\C/C=C\CCC(=O)C(F)(F)F [1e] | 59.5 | 40.5 ± 3.6 | – |
| CCCCC/C=C\C/C=C\C/C=C\C/C=C\CCCC(N)=O [1m, (5Z,8Z,11Z,14Z)-icosa-5,8,11,14-tetraenamide] | 39.3 | 60.7 ± 1.9 | – |
| CCCCC/C=C\C/C=C\C/C=C\C/C=C\CCCC(=O)C(F)(F)Cl [1n] | 50.8 | 49.2 ± 4.5 | – |
| CCCCC/C=C\C/C=C\C/C=C\C/C=C\CCCC(=O)C(F)F [1o] | 59.8 | 40.2 ± 0.5 | – |
| CCCCC/C=C\C/C=C\C/C=C\C/C=C\CCCC(=O)NCCCC(=O)O [2a] | 60.3 | 39.7 ± 2.6 | – |
| CCCCC/C=C\C/C=C\C/C=C\C/C=C\CCCC(=O)NCCCCC(=O)O [2b] | 73.3 | 26.7 ± 0.1 | – |
| CCCCC/C=C\C/C=C\C/C=C\C/C=C\CCCC(=O)NCCCCCC(=O)O [2c] | 59.1 | 40.9 ± 1.1 | – |
| CCCCC/C=C\C/C=C\C/C=C\C/C=C\CCCC(=O)Nc1cccc(C(=O)O)c1 [2d] | 86.8 | 13.2 ± 1.2 | – |
| CCCCC/C=C\C/C=C\C/C=C\C/C=C\CCCC(=O)NCc1ccc(C(=O)O)cc1 [2e] | 74.2 | 25.8 ± 0.1 | – |
| CCCCC/C=C\C/C=C\C/C=C\C/C=C\CCCC(=O)NCc1cccc(C(=O)O)c1 [2f] | 64.4 | 35.6 ± 2.1 | – |
| CCC/C=C\C/C=C\C/C=C\C/C=C\CCCCC(=O)NCCCCC(=O)O [2h] | 56.4 | 43.6 ± 0.2 | – |
| CCC/C=C\C/C=C\C/C=C\C/C=C\CCCCC(=O)Nc1cccc(C(=O)O)c1 [2j] | 83.5 | 16.5 ± 1.2 | – |
| CCCCC/C=C\C/C=C\C/C=C\C/C=C\CCCCCC(=O)NCCCCC(=O)O [2k] | 62.3 | 37.7 ± 1.5 | – |
| CCCCC/C=C\C/C=C\C/C=C\C/C=C\CCCC(=O)Nc1ccc(C(N)=O)cc1 [2l] | 32.6 | 67.4 ± 5.7 | – |
| CCCCC/C=C\C/C=C\C/C=C\C/C=C\CCCC(=O)Nc1cccc(C(N)=O)c1 [2m] | 42.5 | 57.5 ± 1.4 | – |
| CCCCC/C=C\C/C=C\C/C=C\C/C=C\CCCC(=O)Nc1ccc(C(=O)O)cc1 [2n] | 66.7 | 33.3 ± 0.9 | – |
| CCCCC/C=C\C/C=C\C/C=C\C/C=C\CCCC(=O)Nc1ccccc1C(=O)O [2o] | 34.5 | 65.5 ± 4 | – |
| CCCCC/C=C\C/C=C\C/C=C\C/C=C\CCCC(=O)Nc1cccc(S(N)(=O)=O)c1 [2p, (5Z,8Z,11Z,14Z)-N-(3-sulfamoylphenyl)icosa-5,8,11,14-tetraenamide] | 46.1 | 53.9 ± 2.7 | – |
| CCCCC/C=C\C/C=C\C/C=C\C/C=C\CCCC(=O)NCCCCCC(=O)OC [20c] | 15.2 | 84.8 ± 1 | – |
| Cn1c(=O)c2c(ncn2C)n(C)c1=O [caffeine] | – | – | order of Pe values of reference compounds [3]: propranolol > carbamazepine > quinidine > caffeine > dopamine |
| NC(=O)N1c2ccccc2C=Cc2ccccc21 [carbamazepine] | – | – | order of Pe values of reference compounds [3]: propranolol > carbamazepine > quinidine > caffeine > dopamine |
| NCCc1ccc(O)c(O)c1 [dopamine] | – | – | order of Pe values of reference compounds [3]: propranolol > carbamazepine > quinidine > caffeine > dopamine |
| CC(C)NCC(O)COc1cccc2ccccc12 (stereo not shown) [propranolol] | – | – | order of Pe values of reference compounds [3]: propranolol > carbamazepine > quinidine > caffeine > dopamine |
| O=C1NC(=O)/C(=C/c2ccc(C(=O)NC[C@@H]3C[C@@H](SC(c4ccccc4)(c4ccccc4)c4ccccc4)CN3C(=O)c3ccccc3C(=O)c3ccc(F)cc3F)cc2)S1 [pyrrophenone] | – | – | effective permeability (Pe) ([3]; porcine brain lipids, 16 h, 25 °C): 2.00 ± 0.05 × 10^−6 cm/s |
| C=C[C@H]1C[N@@]2CC[C@H]1C[C@@H]2[C@@H](O)c1ccnc2ccc(OC)cc12 [quinidine] | – | – | order of Pe values of reference compounds [3]: propranolol > carbamazepine > quinidine > caffeine > dopamine |

— PMC5651845, “A New Generation of Arachidonic Acid Analogues as Potential Neurological Agent Targeting Cytosolic Phospholipase A2” (Scientific Reports, 2017)
